Data on 15 compounds can be found in patent US11267802B2 (BEBETTER MED INC., priority 2015, dated 2022).

One series relates to LOVO. The series can be described thus: Inhibition assay on tumor cell proliferation (CellTiter-Glo), LOVO. Format: cell-based, Human. The settings on record: Homo sapiens; LOVO (wild-type EGFR), 72 hours, 10% bovine serum. Here is the method:
(§1) By using a CellTiter-Glo luminescence cell viability test kit (Promega, # G7572), the content of adenosine triphosphate (ATP) was determined to assess the cell viability.
(§2) Human colon cancer cell line LOVO and human non-small-cell lung cancer H358 express wild-type EGFR. Human non-small-cell lung cancer cell line HCC827 carries deletion mutation in exon 19 (ex19del). Those cell lines are purchased from Shanghai Fudan IBS Cell Resource Center and American Tissue Culture Collection (ATCC).
(§3) The assay procedure is as follows. The cells in a cell culture plate were digested with a pancreatic enzyme, re-suspended in a DPBS culture medium, and had the cell density counted by Scepter automated cytometer (Millipore # PHCC00000). The cells were diluted to a solution of 44,000 cells per ml. The cell solution with adjusted density was added to the cell assay plate at 90 microliters per well. The plate was placed in an incubator with 5% CO2 at 37° C. for 24 hours of incubation, and then added with different concentrations of subject compounds. The cells were incubated for 72 hours with the compounds in presence of 10% bovine serum. The content of ATP was determined by a CellTiter-Glo® Luminescent Cell Viability Assay kit (see the manufacturer's instruction for details) to evaluate cell-growth inhibition.
(§4) Briefly, 30 μl of CellTiter-Glo® reagent was added to each well, and then shaken for 10 minutes to induce cell lysis. The fluorescent signal was detected and recorded by Fluoroskan Ascent FL (Thermo). The max signal value was obtained from the cells treated by dimethyl sulfoxide for 72 hours. The min signal value was obtained from the medium alone (the number of the cells was 0). Inhibitory rate %=(max signal value−compound signal value)/(max signal value−min signal value)×100. The data was processed by GraphPad Prism V5.0 software (GraphPad Software, San Diego, Calif.). Sigmoidal dose-response curve fitting was performed to calculate the IC50 value.
Background: ATP-based viability assays read luminescence as a measure of living cells.

The next series addresses T1, EGFR T790M/L858R (Homo sapiens, UniProt P00533, L858R/T790M).
T1 construct: purchased Invitrogen PR8911A
The series can be described thus: Mutant EGFR T790M/L858R activity inhibition assay (Caliper mobility shift). The settings on record: read-out: enzyme activity inhibition (IC50) EGFR T790M/L858R. Type of series: biochemical. The procedure: The assay procedure is as follows. […] 5 μl of the compound dissolved in 10% DMSO at a concentration of 5-fold of the final reaction concentration was added to a 384 well plate. 5 μl of 10% DMSO was used in a no-compound control well, while 5 μl of a kinase buffer was used in a no-enzyme activity control well. […] The conversion rate was read on Caliper EZ Reader II (Caliper Life Sciences). The conversion rate was then converted to inhibitory rate.
As used herein, “max” refers to the conversion rate of the DMSO no-compound control well, and “min” refers to the conversion rate of the no-enzyme activity control well. A curve was obtained by plotting the inhibitory rate as a function of the compound concentration. The XLFit excel add-in version 4.3.1 software was used to fit the curve and calculate the IC50. Inhibitory rate %=(max−conversion rate)/(max−min)×100.

The subject of a further series is H1975. Description: Inhibition assay on tumor cell proliferation (CellTiter-Glo), H1975. Format: cell-based, Human. The settings on record: Homo sapiens, NCI-H1975; H1975 (L858R and T790M EGFR double mutation), 72 hours, 10% bovine serum.
The next series has as its system H358. Description: Inhibition assay on tumor cell proliferation (CellTiter-Glo), H358. Format: cell-based, Human. The settings on record: Homo sapiens, NCI-H358; H358 (wild-type EGFR), 72 hours, 10% bovine serum. The procedure: as §1, §2, §3, §4

T1 sequence (P00533 25-1210 T790M/L858R): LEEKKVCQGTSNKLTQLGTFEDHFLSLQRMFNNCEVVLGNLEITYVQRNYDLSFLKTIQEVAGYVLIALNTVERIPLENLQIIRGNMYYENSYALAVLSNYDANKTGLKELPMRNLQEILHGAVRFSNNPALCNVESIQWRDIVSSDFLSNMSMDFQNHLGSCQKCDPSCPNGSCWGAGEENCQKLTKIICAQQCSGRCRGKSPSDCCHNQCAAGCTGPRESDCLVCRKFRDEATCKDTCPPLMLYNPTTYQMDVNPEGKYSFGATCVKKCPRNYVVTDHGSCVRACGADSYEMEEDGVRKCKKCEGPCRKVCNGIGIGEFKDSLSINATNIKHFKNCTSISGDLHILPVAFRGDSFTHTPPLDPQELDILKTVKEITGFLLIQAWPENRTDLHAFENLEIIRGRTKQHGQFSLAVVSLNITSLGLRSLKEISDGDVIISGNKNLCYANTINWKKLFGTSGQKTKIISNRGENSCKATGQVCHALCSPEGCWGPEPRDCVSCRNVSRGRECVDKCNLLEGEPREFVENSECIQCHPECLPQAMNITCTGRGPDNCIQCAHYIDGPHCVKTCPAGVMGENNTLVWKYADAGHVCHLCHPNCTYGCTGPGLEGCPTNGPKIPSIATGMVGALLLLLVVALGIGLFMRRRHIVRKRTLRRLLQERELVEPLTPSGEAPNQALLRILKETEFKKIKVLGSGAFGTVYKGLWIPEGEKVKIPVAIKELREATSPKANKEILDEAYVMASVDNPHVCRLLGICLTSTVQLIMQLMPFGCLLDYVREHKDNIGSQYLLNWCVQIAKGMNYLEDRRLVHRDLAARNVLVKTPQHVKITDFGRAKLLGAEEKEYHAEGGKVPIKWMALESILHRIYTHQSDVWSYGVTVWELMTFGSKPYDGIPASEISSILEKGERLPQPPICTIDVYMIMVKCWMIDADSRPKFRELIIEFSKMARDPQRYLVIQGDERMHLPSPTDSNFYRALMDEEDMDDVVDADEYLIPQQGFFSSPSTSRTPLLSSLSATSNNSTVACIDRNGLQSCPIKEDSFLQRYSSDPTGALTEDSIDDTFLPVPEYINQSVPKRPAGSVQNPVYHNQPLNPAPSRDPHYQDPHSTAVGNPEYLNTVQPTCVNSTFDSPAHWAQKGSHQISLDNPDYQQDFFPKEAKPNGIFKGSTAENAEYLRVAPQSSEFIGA

For `COc1cc(N(C)CCN(C)C)c(NC(=O)/C=C/CN(C)C)cc1Nc1nccc(-n2ccc3ccccc32)n1` [Compound 69, (E)-N-(5-((4-(1H-indol-1-yl)pyrimidin-2-yl)amino)-2-((2-(dimethylamino)ethyl)(methyl)amino)-4-methoxyphenyl)-4-(dimethylamino)but-2-enamide], the melting point – broadly, the temperature, or range, at which the solid turns liquid – was in the range of 116.2 to 118.1 °C. This compound also registered an IC50 in the series with LOVO of 0.1 to 1 µM. For the same compound, the IC50 on EGFR T790M/L858R was under 0.001 µM. This compound gave an IC50 with H1975 of 0.05 to 0.1 µM. In the series with H358, the IC50 lay in the range of 0.1 to 1 µM.

`C=CC(=O)Nc1cc(Nc2nccc(-n3ccc4ccccc43)n2)c(OC)cc1N1CC(N(C)C)C1` [Compound 77, N-(5-(4-(1H-indol-1-yl)pyrimidin-2-ylamino)-2-(3-(dimethylamino)azetidin-1-yl)-4-methoxyphenyl)acrylamide] registered a melting point of 81 to 83 °C. Also, in the series with LOVO, the IC50 was over 1 µM. For the same compound, the IC50 at EGFR T790M/L858R was in the range of 0.001 to 0.01 µM. The compound also showed an IC50 in the series with H1975 of 0.01 to 0.05 µM.

For `C=CC(=O)Nc1cc(Nc2nccc(-n3ccc4cc(F)ccc43)n2)c(OC)cc1N(C)CCN(C)C` [Compound 28, N-(2-((2-(dimethylamino)ethyl)(methyl)amino)-5-((4-(5-fluoro-1H-indol-1-yl)pyrimidin-2-yl)amino)-4-methoxyphenyl)acrylamide], the melting point lay within 168 to 170 °C. The IC50 in the series on LOVO is over 1 µM. Moreover, the IC50 on EGFR T790M/L858R was under 0.001 µM. Further, the IC50 with H1975 was under 0.01 µM. In the series on H358, the IC50 was in the range of 0.1 to 1 µM.

`C=CC(=O)Nc1cc(Nc2ncc(N(C)C)c(-n3ccc4ccccc43)n2)c(OC)cc1N(C)CCN(C)C` [Compound 10, N-(5-(5-(dimethylamino)-4-(1H-indol-1-yl)pyrimidin-2-ylamino)-2-((2-(dimethylamino)ethyl)(methyl)amino)-4-methoxyphenyl)acrylamide]: the melting point lay in the range of 154 to 155 °C. In the series on LOVO, this compound yielded an IC50 of over 1 µM. For the same compound, the IC50 on EGFR T790M/L858R was 0.001 to 0.01 µM. This compound also showed an IC50 with H1975 of under 0.01 µM. The IC50 with H358 fell in the range of 0.1 to 1 µM.

Compound `C=CC(=O)Nc1cc(Nc2ncc(OC)c(-n3ccc4ccccc43)n2)c(OC)cc1N(C)CCN(C)C` [Compound 6, N-(5-((4-(1H-indol-1-yl)-5-methoxypyrimidin-2-yl)amino)-2-((2-(dimethylamino)ethyl)(methyl)amino)-4-methoxyphenyl)acrylamide] yielded a melting point of 143.3 to 147.8 °C. In the series with LOVO, this compound showed an IC50 of over 1 µM. For the same compound, the IC50 on EGFR T790M/L858R lay in the range of 0.001 to 0.01 µM. Moreover, the IC50 with H1975 was under 0.01 µM. Also, the IC50 in the series on H358 is over 1 µM.

`C=CC(=O)Nc1cc(Nc2nccc(-n3ccc4ccccc43)n2)c(OC)cc1N(C)CCN1CCCC1` [Compound 80, N-(5-(4-(1H-indol-1-yl)pyrimidin-2-ylamino)-4-methoxy-2-(methyl(2-(pyrrolidin-1-yl)ethyl)amino)phenyl)acrylamide] showed a melting point of 151 to 153 °C. In the series on LOVO, this compound had an IC50 of over 1 µM. For the same compound, the IC50 at EGFR T790M/L858R was in the range of 0.001 to 0.01 µM. Also, the IC50 in the series on H1975 is under 0.01 µM. The same compound had an IC50 in the series with H358 of over 1 µM.

Take `C=CC(=O)Nc1cc(Nc2nccc(-n3ccc4cc(O)ccc43)n2)c(OC)cc1N(C)CCN(C)C` [Compound 36, N-(2-((2-(dimethylamino)ethyl)(methyl)amino)-5-((4-(5-hydroxy-1H-indol-1-yl)pyrimidin-2-yl)amino)-4-methoxyphenyl)acrylamide]: the melting point is 218 to 219 °C. The IC50 with LOVO is over 1 µM. Besides, the IC50 at EGFR T790M/L858R was under 0.001 µM. In the series with H1975, this compound came in with an IC50 of under 0.01 µM. The same compound registered an IC50 in the series on H358 of 0.1 to 1 µM.

With `C=CC(=O)Nc1cc(Nc2nccc(-n3c(=O)n(C)c4cc(Cl)ccc43)n2)c(OC)cc1N(C)CCN(C)C` [Compound 51, N-(5-(4-(5-chloro-3-methyl-2-oxo-2,3-dihydro-1H-benzo[d]imidazol-1-yl)pyrimidin-2-ylamino)-2-((2-(dimethylamino)ethyl)(methyl)amino)-4-methoxyphenyl)acrylamide], the melting point is 70 to 71 °C. Further, in the series with LOVO, the IC50 was over 1 µM. The IC50 at EGFR T790M/L858R was under 0.001 µM. In the series with H1975, this compound displayed an IC50 of under 0.01 µM. In the series on H358, the IC50 lay in the range of 0.1 to 1 µM.

Regarding `C=CC(=O)Nc1cc(Nc2ncc(C)c(-n3ccc4ccccc43)n2)c(OC)cc1N(C)CCN(C)C` [Compound 8, N-(5-((4-(1H-indol-1-yl)-5-methylpyrimidin-2-yl)amino)-2-((2-(dimethylamino)ethyl)(methyl)amino)-4-methoxyphenyl)acrylamide], the IC50 with LOVO is over 1 µM; on EGFR T790M/L858R it was under 0.001 µM; with H1975 it was under 0.01 µM; with H358 it was 0.1 to 1 µM.

`C=CC(=O)Nc1cc(Nc2ncc(OC)c(-n3c(=O)n(C)c4ccccc43)n2)c(OC)cc1N(C)CCN(C)C` [Compound 57, N-(2-((2-(dimethylamino)ethyl) (methyl)amino)-4-methoxy-5-((5-methoxy-4-(3-methyl-2-oxo-2,3-dihydro-1H-benzo[d]imidazol-1-yl)pyrimidin-2-yl)amino)phenyl)acrylamide] returned a melting point of 168 to 172 °C. Besides, the IC50 in the series with LOVO was over 1 µM. In addition, the IC50 on EGFR T790M/L858R was in the range of 0.001 to 0.01 µM. Moreover, the IC50 in the series on H1975 fell in the range of 0.01 to 0.05 µM. The same compound had an IC50 with H358 of over 1 µM.

For `C=CC(=O)Nc1cc(Nc2ncc(C(F)(F)F)c(-n3ccc4ccccc43)n2)c(OC)cc1N(C)CCN(C)C` [Compound 5, N-(5-((4-(1H-indol-1-yl)-5-(trifluoromethyl)pyrimidin-2-yl)amino)-2-((2-(dimethylamino)ethyl)(methyl)amino)-4-methoxyphenyl)acrylamide], the melting point is 161 to 162 °C. The IC50 in the series on LOVO is over 1 µM. In addition, the IC50 on EGFR T790M/L858R lay in the range of 0.001 to 0.01 µM. Also, the IC50 in the series with H1975 was under 0.01 µM. Besides, the IC50 in the series on H358 was 0.1 to 1 µM.

Take `C=CC(=O)Nc1cc(Nc2nccc(-n3ccc4cc(OCCOC)ccc43)n2)c(OC)cc1N(C)CCN(C)C` [Compound 38, N-(2-((2-(dimethylamino)ethyl)(methyl)amino)-4-methoxy-5-((4-(5-(2-methoxyethoxy)-1H-indol-1-yl)pyrimidin-2-yl)amino)phenyl)acrylamide]: the melting point lay within 59 to 61 °C. The compound also registered an IC50 with LOVO of over 1 µM. Besides, the IC50 at EGFR T790M/L858R is under 0.001 µM. The IC50 in the series on H1975 is under 0.01 µM. The IC50 in the series with H358 was in the range of 0.1 to 1 µM.

Take `C=CC(=O)Nc1cc(Nc2nccc(-n3ccc4c(F)cccc43)n2)c(OC)cc1N(C)CCN(C)C` [Compound 30, N-(2-((2-(dimethylamino)ethyl)(methyl)amino)-5-((4-(4-fluoro-1H-indol-1-yl)pyrimidin-2-yl)amino)-4-methoxyphenyl)acrylamide]: the melting point is 165.5 to 166.5 °C. In addition, the IC50 with LOVO was over 1 µM. On EGFR T790M/L858R, the IC50 is under 0.001 µM. The IC50 in the series with H1975 is under 0.01 µM. Moreover, the IC50 with H358 is 0.1 to 1 µM.

Take `C=CC(=O)Nc1cc(Nc2nccc(-n3ccc4cc(OCCO)ccc43)n2)c(OC)cc1N(C)CCN(C)C` [Compound 37, N-(2-((2-(dimethylamino)ethyl)(methyl)amino)-5-((4-(5-(2-hydroxyethoxy)-1H-indol-1-yl)pyrimidin-2-yl)amino)-4-methoxyphenyl)acrylamide]: the melting point lay in the range of 65 to 67 °C. The compound further had an IC50 in the series with LOVO of over 1 µM. In addition, on EGFR T790M/L858R, the IC50 was under 0.001 µM. The same compound gave an IC50 with H1975 of under 0.01 µM. Also, in the series on H358, the IC50 fell in the range of 0.1 to 1 µM.

Take `C=CC(=O)Nc1cc(Nc2nccc(-n3cc(Cl)c4ccccc43)n2)c(OC)cc1N(C)CCN(C)C` [Compound 46, N-(5-((4-(3-chloro-1H-indol-1-yl)pyrimidin-2-yl)amino)-2-((2-(dimethylamino)ethyl)(methyl)amino)-4-methoxyphenyl)acrylamide]: the melting point lay within 142 to 144 °C. Further, in the series with LOVO, the IC50 is over 1 µM. Moreover, the IC50 on EGFR T790M/L858R was in the range of 0.001 to 0.01 µM. Moreover, in the series with H1975, the IC50 lay in the range of 0.01 to 0.05 µM. Besides, the IC50 in the series with H358 is over 1 µM.
